We go through eight molecules from publication PMC12299926 (Pharmaceuticals, 2025).

Structures are written as SMILES.

A short description of series [1]: Plasma pharmacokinetics after per os enrofloxacin alone or with per os propolis (HPLC-FL, non-compartmental analysis). Particulars: rabbit plasma, CPR = metabolite of ENR.
Procedure: (§1) This study was carried out under ideal conditions for rabbits, with ad libitum food and water. A total of 12 New Zealand White female rabbits, aged 4–6 months and weighing 2500–3000 g, were used in this study. The rabbits were randomly allocated into two groups, and each group consisted of six animals in the first phase of the study. This study was performed according to a two-phase longitudinal pharmacokinetic design. A 40-day elimination period was allowed between the treatments.
(§2) The collected blood samples were centrifuged at 13,000 rpm for 10 min, and plasma was removed and stored at −20 °C until HPLC analysis.
The mobile phase consisted of acetonitrile, and methanol (50:50) and potassium phosphate monobasic (20 mM, pH: 3.40) were delivered in an isocratic fashion at a flow rate of 1 mL/min. The fluorescence detector (FL, G1321B, Agilent, Germany) was at an excitation wavelength of 280 nm and an emission wavelength of 450 nm. […]
(§3) The plasma concentration–time curves obtained after each treatment in the individual animals were fitted with the WinNonlin software program (Version 5.2, Pharsight Corporation, Mountain View, CA, USA). The pharmacokinetic parameters for each animal were analyzed using non-compartmental model analysis. […]
The mean residence time (MRT) was calculated as follows: MRT0→∞ = AUMC0→∞/AUC0→∞ […]
Series [2] is described as follows: Observation of systemic or local adverse effects during the study. Particulars: rabbits; enrofloxacin per os 20 mg/kg or IM 10 mg/kg, propolis 100 mg resin/kg per os.
Procedure: The significance of the results was analyzed pharmacokinetically.
as §1
A short description of series [3]: Plasma pharmacokinetics after intramuscular enrofloxacin alone or with per os propolis (HPLC-FL, non-compartmental analysis). Particulars: after ENR 10 mg/kg IM alone.
Procedure: as §1, §2
The mobile phase consisted of acetonitrile, and methanol (50:50) and potassium phosphate monobasic (20 mM, pH: 3.40) were delivered in an isocratic fashion at a flow rate of 1 mL/min. The fluorescence detector (FL, G1321B, Agilent, Germany) was at an excitation wavelength of 280 nm and an emission wavelength of 450 nm. The Photo Diode Array Detector (DAD) was set at a wavelength of 279 nm for marbofloxacin (I.S.) analysis. The injection volume was 50 µL throughout the analysis, and a chromatographic analysis was completed in 10 min for plasma samples following injection. […]
as §3
The mean residence time (MRT) was calculated as follows: MRT0→∞ = AUMC0→∞/AUC0→∞
Terminal half-life (T1/2λz) was calculated as follows: T1/2λz= −ln(2)/λz where λz represents the first-order rate constant associated with the terminal (log-linear) portion of the curve.
The pharmacokinetic parameters are reported as mean (±SD). Harmonic means were calculated for T1/2λz and MRT0–∞. […] Non-normally distributed data were analyzed by a non-parametric Mann–Whitney U-Test; meanwhile, normally distributed data were compared by independent t-test using SPSS Statistics 23.0 (IBM Corp, Armonk, NY, USA). […]
The conditions of series [4]: 16 volunteers; subtherapeutic doses with propolis (375 mg/day); ref [21]; cited from earlier work.
The conditions of series [5]: propolis coadministered with duloxetine; ref [19]; cited from earlier work.

With `O=C(O)c1cn(C2CC2)c2cc(N3CCNCC3)c(F)cc2c1=O` [CPR + PP], in series [1] (after ENR 20 mg/kg per os with propolis 100 mg resin/kg), the “AUMC0-∞ (dose-normalized)” value was found to be 63.99±17.18 µg.h2/ml.

For `O=C(O)c1cn(C2CC2)c2cc(N3CCNCC3)c(F)cc2c1=O` [CPR, ciprofloxacin], the “AUMC0-∞ (dose-normalized)” value in series [1] (after ENR 20 mg/kg per os alone) turned out to be 27.72±13.72 µg.h2/ml.

The Cmax is the highest concentration seen after dosing. Usually Tmax stands for the time at which the peak concentration occurs. On to `CCN1CCN(c2cc3c(cc2F)c(=O)c(C(=O)O)cn3C2CC2)CC1` [ENR, enrofloxacin], for which the “systemic or local adverse effects” value in series [2] was “neither systemic nor local adverse effects were observed”. Further, the “AUMC0-∞ (dose-normalized)” value in series [3] (dose-normalized, rabbit plasma, CPR = metabolite of ENR) worked out at 59.21±18.78 µg.h2/ml. For the same molecule, in series [3] (female, New Zealand White, rabbit, plasma, im, 10 mg/kg, Cmax, n = 6, CPR = metabolite of ENR), the maximum concentration (Cmax) was found to be 2980 ± 350 ng/mL. Besides, the Tmax in series [3] (female, New Zealand White, rabbit, plasma, im, 10 mg/kg, Tmax, n = 6, CPR = metabolite of ENR) turned out to be 28.2 ± 4.8 min.

As for `Cn1c(=O)c2c(ncn2C)n(C)c1=O` [caffeine], in series [4], the “change of AUC with propolis” value is “decreased”.

`CCCCc1nc(Cl)c(CO)n1Cc1ccc(-c2ccccc2-c2nn[nH]n2)cc1` [losartan]: the “change of AUC with propolis” value in series [4] is “decreased”.

Consider `CNCC[C@H](Oc1cccc2ccccc12)c1cccs1` [duloxetine], for which, in series [5], the “increase in AUC with propolis coadministration” value was 20–30% and the “increase in Cmax with propolis coadministration” value was 20–30%.

Turning to `Cc1ncc2n1-c1ccc(Cl)cc1C(c1ccccc1F)=NC2` [midazolam], the “change of AUC with propolis” value in series [4] is recorded as “increased”.

Turning to `COc1ccc2[nH]c([S+]([O-])Cc3ncc(C)c(OC)c3C)nc2c1` (stereo not drawn) [omeprazole], the “change of AUC with propolis” value in series [4] is on record as “increased”.
